Values belong to the molecule of their own block, whether it stands above or below them.
Key:
[1] = Dog PK following IV and oral dosing; assay type: in vivo, male Beagle dogs; parameters: half-life / clearance / AUC(0-inf): dose or concentration left out as unconfirmed
Procedure: PK in dogs was determined following IV and oral dosing.
For the oral (PO) experiments, two groups of 5 male Beagle dogs each were used. […] IV doses were administered through an indwelling catheter in the cephalic vein. Following dose administration, the catheter was flushed with ca. 3 mL of saline. Oral suspension doses were delivered to the stomach using a syringe and gavage tube. Following oral dosage administration, the gavage tube was flushed with approximately 10 mL of water to ensure complete delivery of the full dose.
Plasma and urine samples were collected as follows: for the PO experiments, samples were collected at 15 min, 30 min, 1 hour, 2 hours, 3 hours, 4 hours, 6 hours, 8 hours, 24 hours, 32 hours and 48 hours post-dosing; for the IV experiments, samples were collected at 2 min, 5 min, 15 min, 30 min, 1 hour, 2 hours, 3 hours, 4 hours, 6 hours, 8 hours, 24 hours, 32 hours and 48 hours post-dosing. Blood samples (2 mL) were collected from the jugular, cephalic or saphenous veins. These samples were kept on ice until processed for plasma. Blood samples were centrifuged at 3200 rpm for 10 minutes at approximately 5° C. within 1 hour of collection. Plasma was split into two approximately equal aliquots, and directly transferred to a 96-well plate tube (1.1 mL). Plug caps were placed on the tubes and the tubes frozen at approximately −70° C. and stored until analysis.
Urine was collected from each animal by diversion from a urine collection pan placed beneath the cage of each animal into an appropriate collection container, surrounded by wet ice or ice packs throughout the collection. The total volume of urine collected at each interval was measured and recorded and a single 10 mL aliquot was collected and stored frozen at approximately −70° C. until analysis.
Plasma and urine were collected and analyzed for the presence of Compound I-1 and Intermediate 3 derived from Compound I-1.
Intermediate 3, Compound I-1 and the internal standard (IS, Compound Z) were extracted from plasma by precipitation. Samples were analyzed using liquid chromatography (LC) with tandem mass spectrometric detection (MS/MS) using electrospray ionization. The standard curve range was from 0.1 to 400 ng/mL.
Thawed plasma samples and the required amount of plasma for standards, blanks and dilutions. Prepared crash solution: room temp ACN containing 1 ng/mL Compound Z as Internal Standard. Created a 1× mixed (Intermediate 3 and Compound I-1) standard curve by diluting the 100× stocks (5 uL of each 100× standard into 490 uL of plasma). Transferred 50 uL of each plasma sample/dilution, standard, or blank. Added 200 uL of the crash solution containing IS. Vortexed for 5 minutes. Centrifuged at 16,000 g at room temperature for 10 min. Transferred 200 uL of each supernatant to a plate. Dried under nitrogen in a TurboVap at 55° C. Resuspended each sample in 50 uL of 0.1% Formic Acid, covered and vortexed. Analyzed by LC-MS/MS.

[2] = Rat PK following intravenous and oral dosing; assay type: in vivo, male Sprague-Dawley rats
[3] = Ex-vivo rat intestinal fluid stability assay; assay type: in vitro ADME; parameters: half-life: dose or concentration left out as unconfirmed; conditions: 37° C.; for prodrug converted into its parent drug / cleaved: after 60 minutes of incubation; for half-life: rat intestinal (jejunum) fluid, read-out: disappearance half-life (T1/2)
Procedure: Phosphate prodrugs disclosed herein were designed to be cleaved by alkaline phosphatase(s) that are present on the apical brush-border membranes of the intestine, after which the more hydrophobic parent compound is readily absorbed. Phosphatases are also present in the liver and in the systemic circulation. In order to test the speed of cleavage of the prodrug into the parent drug, […] solutions of each of the test compounds were incubated in rat intestinal (jejunum) fluid. Samples were taken at times=0, 5, 15, 30 and 60 min and the mixtures were quenched by the addition of acetonitrile containing an internal standard. Samples were analyzed by full scan LC/MS. The following protocol was used:
10 mM DMSO stock solutions were thawed or prepared for the positive control (Enalapril) and each test article. Internal standard (IS) crash solution in acetonitrile (ACN) with 20 ng/ml of Compound Z, depicted below, was prepared. Stock (250 uM) was prepared from 10 mM in 50/50 acetonitrile/H2O. Rat intestinal fluid vials were thawed in a water bath at rt.
In a 96-well, 1 ml plate, 48 uL of rat intestinal fluid was aliquoted in triplicate for each time point. The t0 (“0 min”) time point was prepared separately by adding 450 ul of IS crash solution to 48 ul of intestinal fluid, then adding 2 uL of test compound. 2 ul of the 250 uM substock was added to initiate the reaction at 5 min, 15 min, 30 min, and 60 min. The plate prepared in the above steps was covered with a plastic or foil seal and was set in the 37° C. incubator, lightly shaking. For each time point, 450 ul of IS crash solution was added to quench the reaction. The plates were centrifuged at 4000 RPM for 10 minutes at 4° C. 50 ul of supernatant was transferred into 50 ul of H2O and analyzed using LC/MS.
The disappearance of the prodrug and the conversion to the parent were monitored over time.

[4] = male, Beagle, plasma, dog PO, Intermediate 3 in PEG400 capsules (2 mg/kg)
[5] = plasma, Intermediate 3 dosed 1 mg/kg IV in PEG
[6] = plasma, Intermediate 3 dosed 3.0 mg/kg PO
[7] = male, Beagle, plasma, dog, Compound I-1 0.36 mpk IV in PBS, analyte Compound I-1

Cmax/C24 (ratio) ([1]; dog PO, Intermediate 3 in PEG400 capsules (2 mg/kg)): 3.6 ± 1.1 ratio
AUC [1, 4]: 5190 ± 1410 ng·h/mL
Cmax [1, 4]: 307 ± 116 ng/mL
Tmax [1, 4]: 90 ± 72 min
bioavailability ([1]; male, Beagle, plasma, dog PO, Intermediate 3 in PEG400 capsules (2 mg/kg), read-out: Bioavailability (% F)): 64 ± 12.5%
Vol. of Dist ([2]; Intermediate 3 dosed 1 mg/kg IV in PEG): 9.5 L/kg
Bioavail. (%) ([2]; Intermediate 3 dosed 3.0 mg/kg PO): 102%
AUC(0-inf) [2, 5]: 1100 ng·h/mL
Cmax [2, 5]: 227 ng/mL
clearance [2, 5]: 16 mL/min/kg
AUC(0-t) [2, 6]: 3600 ± 280 ng·h/mL
Cmax [2, 6]: 250 ± 10 ng/mL
Tmax [2, 6]: 480 min
half-life ([2]; plasma, iv, 1 mg/kg, Intermediate 3 dosed 1 mg/kg IV in PEG): 426 min
Compound: OC(CNc1nc(-c2cc(-c3ccon3)n(Cc3ccccc3F)n2)ncc1F)(C(F)(F)F)C(F)(F)F [Intermediate 3]

prodrug converted into its parent drug / cleaved [3]: More than 99%
half-life [3]: 9 min
Compound: O=P(O)(O)OCOC(CNc1nc(-c2cc(-c3ccon3)n(Cc3ccccc3F)n2)ncc1F)(C(F)(F)F)C(F)(F)F [Compound I-4]

prodrug converted into its parent drug ([3]; after 30 minutes of incubation): About 80%
prodrug converted into its parent drug / cleaved [3]: about 95%
half-life [3]: 16 min
Vol. of Dist ([1]; dog, Compound I-1 0.36 mpk IV in PBS, analyte Compound I-1): 0.09 ± 0.03 L/kg
average conversion to the parent ([1]; dog, Compound I-1 administered IV): 95%
AUC compared with parent dosed in PEG ([1]; dog, Compound I-1 dosed IV in PBS): comparable AUC to Intermediate 3
prodrug observed in plasma ([1]; dog, after PO administration of Compound I-1): Low levels
prodrug found in urine ([1]; dog, after dosing of Compound I-1): Negligible amounts
half-life ([1]; male, Beagle, dog, plasma, iv, Compound I-1 IV in PBS, analyte Compound I-1): ~15 min
AUC(0-inf) [1, 7]: 1550 ± 601 ng·h/mL
Cmax [1, 7]: 5110 ± 2150 ng/mL
clearance [1, 7]: 8.3 ± 3.1 mL/min/kg
Vol. of Dist ([2]; Compound I-1 1 mg/kg IV in PBS, analyte Compound I-1): 4.4 ± 2.6 L/kg
Compound: O=P(O)(O)OC(CNc1nc(-c2cc(-c3ccon3)n(Cc3ccccc3F)n2)ncc1F)(C(F)(F)F)C(F)(F)F [Compound I-1]

From patent US10927136B2, “Phosphorus prodrugs of pyrazolo-substituted pyrimidine sGC stimulators” (Cyclerion Therapeutics, Inc., priority 2016, dated 2021)
